From PubChem BioAssay (NCI)
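Test compounds were applied to cells in 96-well plates for 48 hours at 5 doses. GI50 is the concentration that inhibits growth by half. TGI: concentration producing complete growth inhibition.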

Experiments:
Test in all cases: NCI tumour cell line growth inhibition, 48 h
[1] = tested on: DU-145 prostate
[2] = tested on: HCC-2998 colon
[3] = tested on: SK-MEL-5 melanoma
[4] = tested on: OVCAR-4 ovarian
[5] = tested on: 786-0 renal
[6] = tested on: SNB-19 CNS
[7] = tested on: NCI-H23 lung
[8] = tested on: HOP-62 NSCLC
[9] = tested on: HT29 colon
[10] = tested on: NCI-H226 lung

| Structure (SMILES) | GI50 [1] [µM] | TGI [1] [µM] | GI50 [2] [µM] | TGI [2] [µM] | GI50 [3] [µM] | TGI [3] [µM] | GI50 [4] [µM] | TGI [4] [µM] | GI50 [5] [µM] | TGI [5] [µM] | GI50 [6] [µM] | TGI [6] [µM] | GI50 [7] [µM] | TGI [7] [µM] | GI50 [8] [µM] | TGI [8] [µM] | GI50 [9] [µM] | TGI [9] [µM] | GI50 [10] [µM] | TGI [10] [µM] |
| --- | --- | --- | --- | --- | --- | --- | --- | --- | --- | --- | --- | --- | --- | --- | --- | --- | --- | --- | --- | --- |
| Cc1nc2cncc(C#Cc3cncc(C(=O)Nc4ccc(CN5CCN(C)CC5)c(C(F)(F)F)c4)c3)c2nc1C | 0.349 | 6.48 | 1.33 | 20.5 | 0.839 | 2.35 | 0.162 | 6.74 | 0.925 | 7.4 | 5.08 | 13.2 | 0.77 | 6.05 | 0.839 | 5 | 0.205 | 7.56 | 0.0572 | 4.19 |
| C=C(C)C(=O)OC1CC2(C)OC2CC(OC(C)=O)/C(C)=C/C2OC(=O)C(=C)C21 (configuration not stated) |  | 4.7 |  | 15.1 |  | 21.1 |  | 23.7 |  | 6.37 |  | 28.7 |  | 19.4 |  | 26.5 |  | 6.98 |  | 48 |
| COc1cc2c(c(OC)c1OC)-c1ccc(NNC(=S)N(Cc3cccc(C[N+](Cc4cccc(CNC56CC7CC(CC(C7)C5)C6)c4)(Cc4cccc(CNC56CC7CC(CC(C7)C5)C6)c4)Cc4cccc(CN(C(=S)NNc5ccc6c(cc5=O)[C@@H](NC(C)=O)CCc5cc(OC)c(OC)c(OC)c5-6)C56CC7CC(CC(C7)C5)C6)c4)c3)C34CC5CC(CC(C5)C3)C4)c(=O)cc1[C@@H](NC(C)=O)CC2 (some centres not stated) | 2.46 | 7.1 | 0.635 | 1.47 | 0.81 | 2.25 | 2.17 | 8.94 | 1.3 | 5.28 | 1.65 | 6.2 | 1.38 | 5.33 | 2.14 | 7.43 | 0.958 | 2.81 | 1.96 | 9.97 |
| Nc1c(C(=O)c2cccc(-c3ccc[n+]([O-])c3)c2)cnn1-c1ccc(F)cc1F | > 25 | > 25 | > 25 | > 25 | > 25 | > 25 | > 25 | > 25 | > 25 | > 25 | > 25 | > 25 | > 25 | > 25 | > 25 | > 25 | > 25 | > 25 | > 25 | > 25 |
| OCc1cccc(-c2ccc3ncc(-c4nc(NC5CC5)ncc4F)n3c2)c1 | 0.287 | 1.83 | 0.333 | 2.17 | 0.275 | 0.821 | 0.342 | 1.77 | 0.347 | 3.03 | 0.323 | 4.18 | 0.281 | 1.19 | 0.266 | 2.7 | 0.329 | > 100 | 0.301 | 1.47 |
| CNc1nc(C)c(-c2nc(Nc3cccc(S(N)(=O)=O)c3)ncc2F)s1 | 0.0358 | 17.6 | 0.0408 | 2.48 | 0.0296 | 0.639 | 0.0524 | 12.5 | 0.0248 | 3.42 | 0.0273 | 14.1 | 0.0432 | 0.171 | < 0.0201 |  | 0.0605 | 10.8 | 0.0219 | 3.54 |
| O=CN1N=C(c2ccc(Nc3ccnc4cc(Cl)ccc34)cc2)CC1c1ccccc1 (configuration not stated) | 3.8 | 27.8 | 3.5 | 29.5 | 1.38 | 3.77 | 3.88 | > 100 | 3.36 | 12.2 | 5.13 | > 100 | 3.64 | > 100 | 5.26 | 76.5 | 3.21 | 11.1 | 5.22 | > 100 |
| COc1ccc(C2=CC(c3cc(OC)c(OC)c(OC)c3)NC(=O)N2)cc1OC (configuration not stated) | 1.9 | 4.45 | 3.77 | 12.6 | 4.41 | 16.5 | 3.61 | > 100 | 4.65 | 15.6 | 4.73 | 17 | 3.48 | 17.5 | 3.99 | 19.8 | 4.05 | 15.1 | 8.4 | > 100 |
| Nc1nc2c(c3ncccc13)C(c1ccc(Cl)c(Cl)c1)Cc1ncccc1-2 (configuration not stated) | 3.6 | 12.5 | 5.62 | 19.1 | 3.99 | 14.8 | 5.76 | 18.6 | 3.49 | 13.4 | 3.77 | 14.4 | 5.59 | 21.6 | 2.96 | 14 | 3.22 | 11.9 | 16.6 | 41.5 |
| CNC(=O)c1c(NC(=O)c2cccc(C(F)(F)F)c2)sc2c1CCC(=O)C2 | 3.22 | > 100 | 0.656 | 2.52 | 0.462 | 1.66 | 0.389 | 1.44 | 0.447 | > 36.8 | 0.356 | > 100 | 0.318 | 7.56 | 1.94 | > 48.6 | 0.347 |  | 1.61 | 5.71 |
| COc1cc2c(cc1OCCCOC1=C=C=C(c3ccc4c(c3)c3cc(-c5ccc(OCCCOc6cc7c(cc6OC)C(=O)N6CCC[C@H]6C=N7)cc5)ccc3n4S(=O)(=O)c3ccc(C)cc3)C=C1)N=C[C@@H]1CCCN1C2=O | 1.13 | 2.73 | 0.731 | 3.67 | 4.26 | 11.1 | 3.58 | 30.9 | 1.38 | 4.12 | 3.5 | 38.7 | 2.57 | 24.2 | 1.99 | 8.6 | 1.44 | > 20.5 | 4 | 12.9 |
| Cc1cc(=O)c2cc(N=Cc3ccc([N+](=O)[O-])o3)ccc2o1 |  | > 100 |  | > 100 |  | > 100 |  | > 100 |  | > 100 |  | > 100 |  | > 100 |  | > 100 |  | > 100 |  | > 100 |
| C=C1C(=O)O[C@H]2[C@H]1CC/C(CNC(=O)/C=C/c1cccc(OC)c1)=C\CC[C@@]1(C)O[C@@H]21 | 1.19 | 2.49 | 1.83 | 3.31 | 1.69 | 3.18 | 1.69 | 4.79 | 1.54 | 3.58 | 3.22 | 13.5 | 1.67 | 3.35 | 3.17 | 14.8 | 1.22 | 2.81 | 1.82 | 4.84 |
| CSc1ccc(-c2cc(-c3ccc(NC(=O)CCCN4CCCC4)cc3)nc(-c3ccc(NC(=O)CCCN4CCCC4)cc3)c2)cc1 | 4.1 | 13.3 | 2.49 | 6.5 | 2.74 | 10.7 | 2.91 | 12.9 | 6.88 | 23.9 | 4.92 | 23.8 | 1.67 | 3.16 | 1.7 | 3.5 | 1.71 | 3.13 | 3.12 | 16.1 |
| O=C(Nc1ccc(Cl)cc1)c1cc2c(cc1O)[nH]c1ccccc12 | 3.81 | 13.2 | 2 | 5.27 | 1.74 | 3.41 | 4.66 | 17.6 | 2.76 | 7.54 | 3.43 | 30.6 | 2.54 | 9.68 | 2.8 | 6.6 | 5.08 | 17.9 | 2.52 | 9.46 |
| CCCCCCCCCCCCCCCC(=O)OCC1OC(n2cnc3c(=S)nc(N)[nH]c32)C(OC(=O)CCCCCCCCCCCCCCC)C1OC(=O)CCCCCCCCCCCCCCC (configuration not stated) | 1.98 | > 50 | 6.88 | > 50 | > 47 | > 50 | > 19.5 | > 50 | 2.46 | > 50 | > 50 | > 50 | 12.9 | > 50 | 1.78 | > 35 | 3.22 | > 50 | 8.59 | > 50 |
| Cn1c(=O)c(Oc2cccc(F)c2)cc2cnc(NC3CCOCC3)nc21 | > 25 | > 25 | > 25 | > 25 | > 25 | > 25 | > 22.6 | > 25 | > 25 | > 25 | > 25 | > 25 | > 25 | > 25 | > 25 | > 25 | > 25 | > 25 | > 25 | > 25 |
| CC1=C(C(=O)Nc2ccc3[nH]ncc3c2)C(c2ccc(F)cc2)NC(=O)N1 (configuration not stated) | > 25 | > 25 | > 25 | > 25 | > 25 | > 25 | > 25 | > 25 | > 25 | > 25 | > 25 | > 25 | > 25 | > 25 | > 25 | > 25 | > 25 | > 25 | 6.46 | > 25 |
| COc1cc(C(=O)/C=C/c2c(-c3ccc(F)cc3)nc3sc(C)cn23)cc(OC)c1OC | 7.52 | > 100 | 9.93 | > 100 | 0.516 | 1.98 | 2.28 | > 100 | 8.88 | > 100 | 87.7 | > 100 | 2.24 | 8.87 | 85.1 | > 100 | 6.96 | > 100 | 9.58 | > 100 |
| O=c1[nH]cnc2c1nnn2C1OC(CO)C(O)C1O (configuration not stated) | 0.548 | 14 | 2.65 | 24.5 | 5.59 | 30.3 | 0.416 | 37.6 | 2.58 | > 100 | 19.6 | > 100 | 4.25 | > 100 | 2.67 | > 100 | 2.15 | > 100 | 4.88 | > 100 |
| O=[N+]([O-])c1cc(O)c(O)cc1-c1cn2ccsc2n1 | 17.2 | > 100 | 43.7 | > 100 | 16.3 | 54.8 | 69.7 | > 100 | 31 | > 100 | 91.1 | > 100 | 67.5 | > 100 | 36.1 | > 100 | 28.7 | > 100 | 76.7 | > 100 |
| Cc1ccccc1S(=O)(=O)N1[C@H](c2ccc(Cl)cc2)C(C(=O)N[C@@H](Cc2ccccc2)C(N)=O)=C[C@@H]1C(C)(C)C | 8.26 | 20.4 | 6.48 | 13.5 | 6.8 | 13.5 | 6.25 | 13.4 | 9.46 | 23.9 | 6.07 | 17.3 | 8.05 | 17.6 | 7.75 | 15.1 | 3.49 | 10 | 7.05 | 16.1 |
| N#Cc1cccc(C(=O)c2cnn(-c3ccc(F)cc3)c2N)c1 | > 25 | > 25 | > 25 | > 25 | > 25 | > 25 | > 25 | > 25 | > 25 | > 25 | > 25 | > 25 | > 25 | > 25 | > 17.2 | > 25 | > 25 | > 25 | > 25 | > 25 |
| CCOC(=O)c1cc2c(n1Cc1cc(OC)cc(OC)c1)-c1oncc1CCC2 | 0.116 |  | 0.322 | > 100 | 0.0528 | 6.22 | 1.77 | > 100 | 0.104 | > 100 | 0.844 | > 100 | 0.544 | > 100 | 0.242 | > 100 | 0.0499 | 20.1 | 23 | > 100 |
